Experimental data published in patent US11254696B2, “Dianilinopyrimidine compound for inhibiting kinase activity” (Shenzhen Targetrx, Inc., priority 2017, dated 2022).

What was measured:
BaF3 parental = assay: Cytotoxicity test (CellTiter-Glo), BaF3 parental; assay type: cell-based; settings: Mus musculus, 72 hours, read-out: IC50(nM) parental (Ba/F3)
Method: (§1) The in vitro anti-proliferative activity of the compounds of the present disclosure against three types of cells that are cultured in vitro was tested by CellTiter-Glo method.
(§2) Cell lines: BaF3 parental; BaF3 [EML4-ALK] (From WuXi PharmaTech) and BaF3 [EMF4-AFK F1196M] (From WuXi PharmaTech); wherein, BaF3 parental was cultured in RPMI1640 medium containing 10 ng/ml IL-3, 10% fetal bovine serum, 100 U/ml penicillin, and 100 μg/ml streptomycin, BaF3 [EMF4-AFK] and BaF3 [EMF4-AFK F1196M] were cultured in RPMI1640 medium containing 10% fetal bovine serum, 100 U/ml penicillin, and 100 μg/ml streptomycin.
(§3) Reagents and materials: RPMI-1640 (GIBCO, Cat. No. A10491-01); fetal bovine serum (GIBCO, Cat. No. 10099141); 0.25% trypsin-EDTA (GIBCO, Cat. No. 25200); penicillin-streptomycin, liquid (GIBCO, Cat. No. 15140-122); DMSO (Sigma, Cat. No. D2650); CellTiter-Glo Test Kit (Promega, Cat. No. G7572), and 96-well plate (Corning, Cat. No. 3365).
(§4) 1. The test compounds were dissolved in DMSO to make stock solutions and subjected to a series gradient dilution to give solutions with 10-fold working concentration.
(§5) 2. The cells in the logarithmic growth phase were diluted with the culture solution to adjust to the specific cell concentration, 90 μi of cell suspension was added to the 96-well plate to make the cell density reach the specified concentration. The plate was incubated in a incubator at 37° C., containing 5% carbon dioxide gas overnight.
(§6) 3. 10 μl drug solutions were added to each well of the 96-well plate inoculated with cells. 10 concentrations of the compounds were tested starting from the highest concentration of 20 μM with a 3-fold series gradient dilution in duplicate.
(§7) 4. After continuously cultured for 72 hours, the cells were detected by CellTiter-Glo for the cell viability. The dose-effect curve was made using GraphPad Prism software and IC50 was calculated.

[1] = Metabolic stability in rat liver microsomes; assay type: in vitro ADME; settings: SD, pH 7.4, 1 μM compound, 0.5 mg/mL protein; for microsomal CLint at 1 μM: read-out: CLint (uL/min/mg), Rat liver microsome experiment; for half-life at 1 μM: read-out: t1/2 (min), Rat liver microsome experiment
Method: (§8) Experiments in microsomes: Human liver microsomes: 0.5 mg/mL, Xenotech; Rat liver microsomes: 0.5 mg/mL, Xenotech; Coenzyme (NADPH/NADH): 1 mM, Sigma Life Science; Magnesium chloride: 5 mM, 100 mM phosphate buffer (pH 7.4).
(§9) Preparation of stock solution: Powder of the example compounds was accurately weighed and dissolved in DMSO to 5 mM. Preparation of phosphate buffer (100 mM, pH7.4): A pre-formulated 0.5M potassium dihydrogen phosphate (150 mL) was mixed with 0.5M dibasic potassium phosphate (700 mL). The pH of the mixture was adjusted to 7.4 with 0.5M dibasic potassium phosphate solution. The mixture was diluted 5-fold with ultrapure water before use, and magnesium chloride was added to obtain a phosphate buffer (100 mM) containing 100 mM potassium phosphate, 3.3 mM magnesium chloride, pH7.4. A NADPH regeneration system solution (containing 6.5 mM NADP, 16.5 mM G-6-P, 3 U/mL G-6-PD, 3.3 mM magnesium chloride) was prepared and placed on wet ice prior to use. Preparation of stop solution: acetonitrile solution containing 50 ng/mL propranolol hydrochloride and 200 ng/mL tolbutamide (internal standard). 25057.5 μL of phosphate buffer (pH 7.4) was taken into a 50 mL centrifuge tube, to which 812.5 μL human liver microsomes were added, and mixed to obtain a liver microsome dilution solution with a protein concentration of 0.625 mg/mL. 25057.5 μL of phosphate buffer (pH 7.4) was taken into a 50 mL centrifuge tube, to which 812.5 μL SD rat liver microsomes were added, and mixed to obtain a liver microsome dilution solution with a protein concentration of 0.625 mg/mL.
(§10) Incubation of the samples: The stock solution of the respective compound was respectively diluted to 0.25 mM with an aqueous solution containing 70% acetonitrile, and used as a working solution, ready for use. 398 μL of the dilution solution of human liver microsomes or rat liver microsome were added to a 96-well incubation plate (N=2), respectively, and 2 μL of 0.25 mM working solution was added and mixed.
(§11) Metabolic stability assay: 300 μL of pre-chilled stop solution was added to each well of a 96-well deep well plate and placed on ice as a stop plate. The 96 well incubation plate and NADPH regeneration system were placed in a 37° C. water bath box, shaken at 100 rpm and pre-incubated for 5 min. 80 μL of incubation solution was taken out from each well of the incubation plate and added to the stop plate, mixed, and replenished with 20 μL of NADPH regeneration system solution as a 0-min sample. 80 μL of NADPH regeneration system solution was added to each well of the incubation plate to start the reaction and start counting. […] Separately, 100 μL of the reaction solution was taken at 10, 30, and 90 min reaction, respectively, added to a stop plate, and vortexed for 3 minutes to terminate the reaction. The stop plate was centrifuged at 5000×g at 4° C. for 4 min. 100 μL of the supernatant was added to a 96-well plate to which 100 μL of distilled water was previously added, mixed, and analyzed by LC-MS/MS.
(§12) Data analysis: The peak areas of the corresponding compound and internal standard were detected by LC-MS/MS system, and the ratio of the peak area of the compound to the internal standard was calculated.

ALK [WT] = ALK [WT] (Homo sapiens, UniProt Q9UM73); assay: Kinase inhibition assay, ALK [WT]; assay type: biochemical
Method: (§13) Compound preparation: The test compounds were dissolved in DMSO to make 20 mM stock solutions. The compounds were diluted in DMSO to 0.1 mM (a dilution with 100 times the final concentration) before use, and a 3-fold series gradient dilution with 11 concentrations was made. Dilutions with 4 times of the final concentration were prepared by diluting with buffer when dosing.
(§14) Kinase assay: after preparing the buffer solution, the enzyme was mixed with pre-diluted compounds with different concentrations, and placed at room temperature for 30 minutes in duplicate. The corresponding substrate and ATP were added thereto and reacted at room temperature for 60 minutes (both a negative and a positive control were set). After the reaction, antibody was added for detection, and after incubation at room temperature for 60 minutes, Evnvision detection was carried out, and data was collected. Data was analyzed and fit according to XLfit5 software. IC50 was calculated by the following formula: (IC50=[(ABS test−ABS begin)/(ABS control−ABS begin)]×100).

ALK [L1196M] = ALK [L1196M] (Homo sapiens, UniProt Q9UM73, L1196M); assay: Kinase inhibition assay, ALK [L1196M]; assay type: biochemical
Method: as §13, §14

ALK[L1196M] (Ba/F3) [2] = assay: Cytotoxicity test (CellTiter-Glo), BaF3 EML4-ALK L1196M; assay type: cell-based; settings: Ba/F3 cells
Method: as §1, §2, §3, §4, §5, §6, §7

ALK[L1196M] (Ba/F3) [3] = molecular target: T1, ALK[L1196M] (Ba/F3) (Homo sapiens, UniProt Q9UM73, L1196M, cells depend on it); assay: as above; assay type: cell-based; settings: 72 hours, CellTiter-Glo; read-out: IC50(nM) ALK[L1196M] (Ba/F3)
T1 construct: IC50(nM) ALK[L1196M]; (Ba/F3); other: 72 hours, CellTiter-Glo; BaF3 [EMF4-AFK F1196M]; fused on or other part: Q9HC35 (Echinoderm microtubule-associated protein-like 4)
Method: as §1, §2, §3, §4, §5, §6, §7

BaF3 [EML4-ALK] [4] = assay: Cytotoxicity test (CellTiter-Glo), BaF3 [EML4-ALK]; assay type: cell-based; settings: Ba/F3 cells
Method: as §1, §2, §3, §4, §5, §6, §7

BaF3 [EML4-ALK] [5] = molecular target: T2, BaF3 [EML4-ALK] (Homo sapiens, UniProt Q9UM73); assay: Cytotoxicity test (CellTiter-Glo), BaF3 [EML4-ALK]; assay type: cell-based; settings: 72 hours, CellTiter-Glo; read-out: IC50(nM) ALK (Ba/F3)
T2 construct: IC50(nM) ALK (Ba/F3); other: 72 hours, CellTiter-Glo; BaF3 [EML4-ALK]; fused on or other part: Q9HC35 (Echinoderm microtubule-associated protein-like 4)
Method: as §1, §2, §3, §4, §5, §6, §7

[6] = Metabolic stability in human liver microsomes; assay type: in vitro ADME; settings: pH 7.4, 1 μM compound, 0.5 mg/mL protein; for microsomal CLint at 1 μM: read-out: CLint (uL/min/mg), Human liver microsome experiment; for half-life at 1 μM: read-out: t1/2 (min), Human liver microsome experiment
Method: as §8, §9, §10, §11, §12

T1 sequence (Q9UM73 whole entry L1196M, the tested form may be a part): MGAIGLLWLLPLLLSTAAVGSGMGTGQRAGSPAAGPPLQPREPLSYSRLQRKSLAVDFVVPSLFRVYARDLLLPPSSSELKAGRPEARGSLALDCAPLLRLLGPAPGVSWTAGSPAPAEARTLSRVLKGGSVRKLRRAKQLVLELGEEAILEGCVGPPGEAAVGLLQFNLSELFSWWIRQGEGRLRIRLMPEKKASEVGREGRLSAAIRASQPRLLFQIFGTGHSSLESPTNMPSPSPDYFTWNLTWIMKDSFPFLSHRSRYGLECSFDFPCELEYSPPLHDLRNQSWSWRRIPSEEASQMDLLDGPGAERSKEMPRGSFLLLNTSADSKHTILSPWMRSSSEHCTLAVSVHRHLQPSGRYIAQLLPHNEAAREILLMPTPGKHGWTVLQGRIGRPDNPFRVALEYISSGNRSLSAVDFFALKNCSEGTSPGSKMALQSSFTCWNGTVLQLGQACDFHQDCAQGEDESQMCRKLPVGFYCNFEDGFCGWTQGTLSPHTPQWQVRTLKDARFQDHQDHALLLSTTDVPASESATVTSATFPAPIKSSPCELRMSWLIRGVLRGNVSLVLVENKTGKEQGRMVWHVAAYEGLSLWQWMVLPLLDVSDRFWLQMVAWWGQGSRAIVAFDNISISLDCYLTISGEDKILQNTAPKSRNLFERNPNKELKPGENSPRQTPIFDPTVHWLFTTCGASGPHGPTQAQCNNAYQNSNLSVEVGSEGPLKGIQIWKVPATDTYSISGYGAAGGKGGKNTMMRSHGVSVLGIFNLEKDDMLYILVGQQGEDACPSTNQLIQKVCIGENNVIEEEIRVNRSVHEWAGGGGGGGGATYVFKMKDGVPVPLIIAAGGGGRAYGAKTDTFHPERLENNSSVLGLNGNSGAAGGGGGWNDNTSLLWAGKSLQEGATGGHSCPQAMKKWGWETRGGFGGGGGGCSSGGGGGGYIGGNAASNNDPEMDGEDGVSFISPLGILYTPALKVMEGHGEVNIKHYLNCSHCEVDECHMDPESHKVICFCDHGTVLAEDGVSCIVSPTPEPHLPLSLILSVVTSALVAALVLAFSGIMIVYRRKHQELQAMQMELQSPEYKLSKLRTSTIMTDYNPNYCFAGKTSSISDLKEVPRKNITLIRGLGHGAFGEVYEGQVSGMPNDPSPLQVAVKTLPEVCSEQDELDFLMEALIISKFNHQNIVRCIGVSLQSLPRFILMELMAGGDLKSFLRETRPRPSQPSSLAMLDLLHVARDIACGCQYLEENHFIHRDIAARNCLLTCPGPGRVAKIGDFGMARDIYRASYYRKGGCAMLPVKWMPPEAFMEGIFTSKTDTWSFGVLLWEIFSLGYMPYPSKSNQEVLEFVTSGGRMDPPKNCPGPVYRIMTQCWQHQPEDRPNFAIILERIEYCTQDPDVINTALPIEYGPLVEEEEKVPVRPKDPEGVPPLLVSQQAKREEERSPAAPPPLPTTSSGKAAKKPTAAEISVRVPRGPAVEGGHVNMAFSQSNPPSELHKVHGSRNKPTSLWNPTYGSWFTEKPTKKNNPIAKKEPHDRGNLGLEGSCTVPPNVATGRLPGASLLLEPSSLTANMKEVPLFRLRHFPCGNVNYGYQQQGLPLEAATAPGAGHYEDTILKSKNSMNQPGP
Sequence of ALK [WT] (Q9UM73 19-1620): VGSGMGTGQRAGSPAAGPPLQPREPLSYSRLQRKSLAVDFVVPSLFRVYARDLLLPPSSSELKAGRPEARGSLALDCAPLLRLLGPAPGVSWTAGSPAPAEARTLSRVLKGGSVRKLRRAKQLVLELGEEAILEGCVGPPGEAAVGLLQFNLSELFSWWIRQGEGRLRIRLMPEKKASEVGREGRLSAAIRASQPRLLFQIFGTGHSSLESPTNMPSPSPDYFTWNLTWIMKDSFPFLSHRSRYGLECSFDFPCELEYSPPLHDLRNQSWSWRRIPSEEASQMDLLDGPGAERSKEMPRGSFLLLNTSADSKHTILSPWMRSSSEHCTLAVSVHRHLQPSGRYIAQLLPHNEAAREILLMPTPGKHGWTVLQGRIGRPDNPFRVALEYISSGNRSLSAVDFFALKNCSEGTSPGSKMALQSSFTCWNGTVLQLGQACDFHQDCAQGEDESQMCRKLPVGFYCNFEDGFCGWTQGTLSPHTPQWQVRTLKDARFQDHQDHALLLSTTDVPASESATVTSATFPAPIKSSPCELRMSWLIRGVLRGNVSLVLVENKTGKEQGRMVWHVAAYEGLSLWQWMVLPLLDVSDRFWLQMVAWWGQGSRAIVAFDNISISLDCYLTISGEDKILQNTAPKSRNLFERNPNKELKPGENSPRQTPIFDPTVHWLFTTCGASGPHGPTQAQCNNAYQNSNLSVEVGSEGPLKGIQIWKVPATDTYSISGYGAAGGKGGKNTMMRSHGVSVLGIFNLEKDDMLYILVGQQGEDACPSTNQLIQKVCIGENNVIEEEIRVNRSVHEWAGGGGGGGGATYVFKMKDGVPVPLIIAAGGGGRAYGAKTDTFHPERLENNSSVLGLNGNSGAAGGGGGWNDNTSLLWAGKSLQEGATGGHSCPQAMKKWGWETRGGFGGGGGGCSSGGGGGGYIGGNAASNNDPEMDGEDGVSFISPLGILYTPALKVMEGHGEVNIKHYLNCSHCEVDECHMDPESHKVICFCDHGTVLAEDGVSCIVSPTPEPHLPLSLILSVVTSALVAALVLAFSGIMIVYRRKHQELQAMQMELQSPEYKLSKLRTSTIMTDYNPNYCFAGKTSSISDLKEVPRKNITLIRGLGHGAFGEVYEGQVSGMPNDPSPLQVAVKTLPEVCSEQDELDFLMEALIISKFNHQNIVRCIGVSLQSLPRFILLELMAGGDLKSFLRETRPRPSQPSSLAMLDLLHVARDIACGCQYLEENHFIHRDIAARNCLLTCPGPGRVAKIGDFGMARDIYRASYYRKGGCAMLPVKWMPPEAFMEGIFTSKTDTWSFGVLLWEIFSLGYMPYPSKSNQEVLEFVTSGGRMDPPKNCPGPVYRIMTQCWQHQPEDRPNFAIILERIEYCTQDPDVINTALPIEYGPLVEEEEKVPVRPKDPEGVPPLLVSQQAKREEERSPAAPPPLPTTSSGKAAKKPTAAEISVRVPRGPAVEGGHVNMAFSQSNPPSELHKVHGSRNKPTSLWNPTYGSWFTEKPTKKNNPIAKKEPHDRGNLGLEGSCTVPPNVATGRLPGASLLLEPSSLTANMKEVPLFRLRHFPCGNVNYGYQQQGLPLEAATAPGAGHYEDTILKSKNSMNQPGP
Sequence of ALK [L1196M] (Q9UM73 19-1620 L1196M): as the sequence (Q9UM73 19-1620) above, with L1178M counted along it
T2 sequence (Q9UM73 whole entry, change not shown, the tested form may be a part): as the sequence (Q9UM73 whole entry L1196M, the tested form may be a part) above, with M1196L counted along it

Structure (SMILES)	IC50 (BaF3 parental) [nM]	microsomal CLint at 1 μM [1] [µL/min/mg]	half-life at 1 μM [1] [min]	IC50 (ALK [WT]) [nM]	IC50 (ALK [L1196M]) [nM]	Selectivity parental/ALK[L1196M] (ALK[L1196M] (Ba/F3) [2])	GI50 (ALK[L1196M] (Ba/F3) [3]) [nM]	Selectivity parental/ALK (BaF3 [EML4-ALK] [4])	GI50 (BaF3 [EML4-ALK] [5]) [nM]	microsomal CLint at 1 μM [6] [µL/min/mg]	half-life at 1 μM [6] [min]
COc1cc(CCN2CCN(C)CC2)ccc1Nc1ncc(Cl)c(Nc2ccccc2P(C)(C)=O)n1 [Example 5, (2-((5-chloro-2-((2-methoxy-4-(2-(4-methylpiperazin-1-yl)ethyl)phenyl)amino)pyrimidin-4-yl)amino)phenyl)dimethylphosphine oxide]	≥ 1000	35.9	38.6	≤ 2	≤ 2	100 to 200	25 to 50	200 to 500	< 25	17.3	80
COc1cc(CCN(C)C)c(C)cc1Nc1ncc(Cl)c(Nc2ccccc2P(C)(C)=O)n1 [Example 20, (2-((5-chloro-2-((4-(2-(dimethylamino)ethyl)-2-methoxy-5-methylphenyl)amino)pyrimidin-4-yl)amino)phenyl)dimethylphosphine oxide]	≥ 1000	32.3	42.9	2 to 5	2 to 5	50 to 100	25 to 50	50 to 100	25 to 50	5.4	259
COc1cc(C(C)(C)CN(C)C)ccc1Nc1ncc(Cl)c(Nc2ccccc2P(C)(C)=O)n1 [Example 12, (2-((5-chloro-2-((4-(1-(dimethylamino)-2-methylpropan-2-yl)-2-methoxyphenyl)amino)pyrimidin-4-yl)amino)phenyl)dimethylphosphine oxide]	≥ 1000	86.8	16	2 to 5	5 to 10	<50	50 to 100	100 to 200	25 to 50	73.5	18.9
COc1cc(C(C)CN)ccc1Nc1ncc(Cl)c(Nc2ccccc2P(C)(C)=O)n1 (stereo not drawn) [Example 16, (2-((2-((4-(1-aminopropan-2-yl)-2-methoxyphenyl)amino)-5-chloropyrimidin-4-yl)amino)phenyl)dimethylphosphine oxide]	≥ 1000	11.7	118	5 to 10	5 to 10	<50	200 to 1000	50 to 100	200 to 1000	21.5	64.6
CNC(C)c1ccc(Nc2ncc(Cl)c(Nc3ccccc3P(C)(C)=O)n2)c(OC)c1 (stereo not drawn) [Example 9, (2-((5-chloro-2-((4-(1-(methylamino)ethyl)-2-methoxyphenyl)amino)pyrimidin-4-yl)amino)phenyl)dimethylphosphine oxide]	≥ 1000	9.9	140	2 to 5	2 to 5	<50	200 to 1000	50 to 100	50 to 100	11.3	123
COc1cc(C(C)N)ccc1Nc1ncc(Cl)c(Nc2ccccc2P(C)(C)=O)n1 (stereo not drawn) [Example 7, (2-((2-((4-(1-aminoethyl)-2-methoxyphenyl)amino)-5-chloropyrimidin-4-yl)amino)phenyl)dimethylphosphine oxide]	≥ 1000	4.1	340	2 to 5	2 to 5	<50	200 to 1000	<50	50 to 100	5.7	244
